# Data from patent US7855182B2, “Materials and methods for treatment of cancer” (The Institute of Cancer Research; Royal Cancer Hospital, priority 2004, dated 2010).
# Key:
# GPC5 = GPC5 expression in PC3M tumours grown as subcutaneous implants in treated mice; type: in vivo, athymic nude mice; details: preliminary
# Description: (§1) To measure the amount of mature mRNA copies of GPC5 and GPC6 the probe was designed across the exon 1-exon 2 boundary and the exon 7-exon 8 boundary respectively. Applied Biosystems' Predeveloped GAPDH (Glyceraldehyde 3-phosphate dehydrogenase) was used as an endogenous control. 25 μL multiplex PCR reactions were run using 2× Universal TaqMan® Master Mix (Applied Biosystems Pt No. 4304437), the concentration of primers and probes shown in Table 1 and 10 ng of DNA or cDNA. These samples were run in triplicate under standard operating conditions on an ABI7700 SDS TaqMan® Machine (Applied Biosystems, CA). […] Thus, the amount of GPC5 and GPC6 was measured relative to either normal genomic DNA in the case of genomic measurements and to normal muscle in the case of expression measurements. Normal genomic DNA was extracted from the blood of a healthy donor, normal muscle cDNA was produced from RNA extracted from a pool of 11 normal muscle biopsies.
# Previous gene profiling studies following treatment of K562 cells with WT1 directed ASOs, identified GPC5 as a putative WT1 target gene (manuscript in preparation). Downregulation of GPC5 expression following WT1 antisense treatment and correlating with reduced WT1 expression was confirmed in independent experiments (see FIG. 6). […]
# WT1 = WT1 expression in PC3M tumours grown as subcutaneous implants in treated mice; type: in vivo, athymic nude mice; details: PC3M prostate cancer subcutaneous implants, mice treated with WT1 antisense; preliminary, data not shown
# Description: The primer pair and probe for the quantification of WT1 were designed using the Primer Express program (Applied Biosystems) according to the recommended guidelines and as described above.: WT1—Forward primer, 5′-[…]-3′, reverse primer, 5′, […]-3′, and probe, 5′-[…]-3′. Each assay sample was analyzed in triplicate as above, and multiplexed to facilitate the measurement of gene expression levels relative to GAPDH (in vivo tumour samples) or 18 s ribosomal RNA expression (ribosomal RNA control reagents, Applied Biosystems) (in vitro cell line samples) using the standard curve method.
# Previous gene profiling studies following treatment of K562 cells with WT1 directed ASOs, identified GPC5 as a putative WT1 target gene (manuscript in preparation). Downregulation of GPC5 expression following WT1 antisense treatment and correlating with reduced WT1 expression was confirmed in independent experiments (see FIG. 6). […] Direct transcriptional regulation of GPC5 by WT1 is likely since GPC5 has two WT1 consensus binding sites in its promoter region.
# HL-60 = test: Clonogenic cell survival assay in soft agar, HL-60 control leukaemic cell line not expressing GPC5; type: cell-based; details: HL-60 cells, compared to sham-treated
# Description: In this assay, cells are grown at low density in suspension in soft agar following treatment. Each colony formed derives from a single surviving cell. 2 ml aliquots of diluted cells were added to polystyrene tubes (Elkay Products (UK) Ltd., Basingstoke, Hampshire, UK) containing 3 ml of medium supplemented with 20% FCS and 0.2% Agar Noble (DIFCO Laboratories, Detroit, Mich.), incubated at 37° C., and colonies containing at least 32 cells counted after 14 days. The number of colonies formed following drug treatment were compared to the number obtained following sham electroporation or a control scrambled oligonucleotide and expressed as % control treatment. In a number of separate experiments, control plating efficiencies ranged from 22-38%, with 800-1600 cells typically plated. In addition, cells from the dilution series (approx 10^3-10^4 cells/ml) were allowed to grow up in suspension culture in parallel for 3-5 days in order to confirm cytotoxicity.
# Two active compounds, ISIS 276107 and ISIS 276119, were identified in this primary screen, reducing GPC5 levels to less than 30% control levels and reducing cell survival by greater than 80% (FIG. 3A). […] FIGS. 3B and C show the effects of ISIS 276107 and a control compound (ISIS 276124) at varying concentrations in the same assay.
# GPC5 mRNA = GPC5 mRNA quantification (TaqMan) after electroporation of antisense oligonucleotides into K562 cells; type: cell-based, human
# Description: as §1, with “biopsies. […]” for “biopsies.”
# K562 cells = test: Clonogenic cell survival assay in soft agar, K562 cells; type: cell-based, human
# Description: Antisense or control oligonucleotides were dissolved in PBS and introduced into K562 cells by low voltage electroporation: 40 μl of appropriately diluted ASOs were combined with 360 μl of cell suspension at 2×10^7 cells/ml and cells were electroporated (Bio-Rad Gene Pulser® II Electroporation system with Pulse Controller Plus capacitance extender accessory module, Bio-Rad Laboratories Ltd, Hemel Hempstead, Herts, UK) using 300V and a capacitor value of 1000 μF, and diluted to 10 ml with complete medium. From each sample appropriate duplicate aliquots of cells were serially diluted in complete medium for assessment of cytotoxicity while the remaining cells were incubated at 37° C. for 24 hours ana RNA extracted for quantification of GPC5 and/or WT1 expression levels.
# In this assay, cells are grown at low density in suspension in soft agar following treatment. […] 2 ml aliquots of diluted cells were added to polystyrene tubes (Elkay Products (UK) Ltd., Basingstoke, Hampshire, UK) containing 3 ml of medium supplemented with 20% FCS and 0.2% Agar Noble (DIFCO Laboratories, Detroit, Mich.), incubated at 37° C., and colonies containing at least 32 cells counted after 14 days. The number of colonies formed following drug treatment were compared to the number obtained following sham electroporation or a control scrambled oligonucleotide and expressed as % control treatment. […]
molecule,measurement,setting,value
CC(=O)O[C@@]12CO[C@@H]1C[C@H](O)[C@@]1(C)C(=O)[C@H](O)C3=C(C)[C@@H](OC(=O)[C@H](O)[C@@H](NC(=O)OC(C)(C)C)c4ccccc4)C[C@@](O)([C@@H](OC(=O)c4ccccc4)[C@H]21)C3(C)C [docetaxol],increase in GPC5 expression,"GPC5; PC3M tumours, mice treated with 15 mg/kg",5 fold
"ASWT1exon5: WT1 antisense oligonucleotide targeting WT1 exon 5, GCCCCTTCTGTCCATTTCACT (SEQ ID NO: 26)",decrease in WT1 expression levels,WT1,50%
same,reduction in GPC5 expression,"GPC5; PC3M prostate cancer subcutaneous implants, mice treated with WT1 antisense, data not shown",30%
"ISIS 276107: 20 mer 2'-MOE chimeric phosphorothioate GPC5 antisense oligonucleotide, CAGCCCCCTGACAGCTCCCA (SEQ ID NO: 23) (all phosphorothioate, sugars by position and methylation of C not given here; 2'-MOE wings flank eight-deoxy central gap)",colony number following treatment,HL-60,no decrease
"ISIS 276124: control oligonucleotide, TGGATTTGCTTTACACATCACT (SEQ ID NO: 25)",effect on GPC5 expression / GPC5 levels,GPC5 mRNA,not to affect
same,effect on cell viability / cell survival,K562 cells,not to affect
same,colony number following treatment,HL-60,no decrease
